These results are taken from article doi:10.1101/2023.09.07.556657v1 (biorxiv, 2023).

SMILES strings stand for the structures.

The target in this test is T1, Cf-SGBP-CBMxxIV (Christiangramia forsetii, UniProt A0M709).
T1 sequence (A0M709 740-904): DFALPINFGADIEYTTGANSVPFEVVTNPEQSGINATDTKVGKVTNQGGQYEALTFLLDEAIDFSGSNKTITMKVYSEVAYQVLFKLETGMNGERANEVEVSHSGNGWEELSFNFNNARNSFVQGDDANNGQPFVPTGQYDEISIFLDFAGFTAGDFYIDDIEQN
Briefly: isothermal titration calorimetry. Conditions: 293.15 K, pH 7.8, 10 mM MOPS, 100 mM NaCl; single-site model. Format: binding. A general note: ITC needs no label: the signal is the heat of the interaction.

Consider `OC[C@H]1O[C@@H](O[C@@H]2[C@@H](O)[C@H](O[C@@H]3[C@@H](O)[C@H](O[C@@H]4[C@@H](O)[C@H](O[C@H]5[C@H](O)[C@@H](CO)OC(O)[C@@H]5O)O[C@H](CO)[C@H]4O)O[C@H](CO)[C@H]3O)O[C@H](CO)[C@H]2O)[C@H](O)[C@@H](O)[C@@H]1O` (some centres unmarked) [DP5, laminaripentaose], for which the Ka is 1.39 (± 0.07) x10^4. For the compound `OC[C@H]1O[C@@H](O[C@@H]2[C@@H](O)[C@H](O[C@@H]3[C@@H](O)[C@H](O[C@@H]4[C@@H](O)[C@H](O[C@@H]5[C@@H](O)[C@H](O[C@@H]6[C@@H](O)[C@H](O[C@H]7[C@H](O)[C@@H](CO)OC(O)[C@@H]7O)O[C@H](CO)[C@H]6O)O[C@H](CO)[C@H]5O)O[C@H](CO)[C@H]4O)O[C@H](CO)[C@H]3O)O[C@H](CO)[C@H]2O)[C@H](O)[C@@H](O)[C@@H]1O` (some centres unmarked) [DP7, laminariheptaose], the Ka was 1.87 (± 0.17) x10^4.
